Laboratory results published in PubChem BioAssay (NCI).
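A five-concentration, 48-hour dose response in 96-well plates underlies each endpoint, interpolated linearly between surrounding concentrations. Definition used: TGI = concentration required for complete inhibition of growth.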

Tests used:
Assay in all cases: inhibition of tumour cell growth, NCI panel, 48 h
[1] = system: MOLT-4 leukemia
[2] = system: A549 NSCLC
[3] = system: U251 CNS
[4] = system: ACHN renal
[5] = system: SK-MEL-28 melanoma
[6] = system: LOX IMVI melanoma
[7] = system: HL-60(TB) leukemia
[8] = system: NCI-H226 lung
[9] = system: EKVX NSCLC
[10] = system: CCRF-CEM leukemia
[11] = system: UACC-62 melanoma
[12] = system: UACC-257 melanoma
[13] = system: HOP-92 NSCLC
[14] = system: OVCAR-8 ovarian
[15] = system: OVCAR-5 ovarian
[16] = system: MDA-N
[17] = system: OVCAR-4 ovarian
[18] = system: OVCAR-3 ovarian
[19] = system: SF-539 CNS
[20] = system: TK-10 renal
[21] = system: COLO 205 colon
[22] = system: SK-OV-3 ovarian
[23] = system: RXF 393 renal
[24] = system: SK-MEL-5 melanoma
[25] = system: SN12C renal
[26] = system: HCT-116 colon
[27] = system: SK-MEL-2 melanoma
[28] = system: SF-295 CNS
[29] = system: A498 renal
[30] = system: SNB-19 CNS
[31] = system: MDA-MB-435
[32] = system: MDA-MB-231 breast
[33] = system: HCT-15 colon
[34] = system: SR leukemia
[35] = system: 786-0 renal
[36] = system: M14 melanoma
[37] = system: MCF7 breast
[38] = system: SNB-75 CNS
[39] = system: CAKI-1 renal
[40] = system: NCI-H460 lung
[41] = system: NCI/ADR-RES ovarian
[42] = system: DU-145 prostate
[43] = system: IGROV1 ovarian
[44] = system: HT29 colon
[45] = system: UO-31 renal
[46] = system: KM12 colon
[47] = system: K-562 leukemia
[48] = system: SW-620 colon
[49] = system: SF-268 CNS
[50] = system: HS 578T breast
[51] = system: NCI-H23 lung
[52] = system: RPMI-8226 leukemia
[53] = system: HOP-62 NSCLC
[54] = system: NCI-H522 lung
[55] = system: MALME-3M melanoma
[56] = system: PC-3 prostate
[57] = system: T-47D breast
[58] = system: BT-549 breast
[59] = system: HCC-2998 colon

O=c1[nH]c(=O)n(COCc2ccccc2)c2ccc(Br)cc12
TGI [1]: > 100 µM | TGI [2]: > 100 µM | TGI [3]: > 100 µM | TGI [4]: > 100 µM | TGI [5]: > 100 µM | TGI [6]: > 100 µM | TGI [7]: > 100 µM | TGI [8]: > 100 µM | TGI [9]: > 100 µM | TGI [10]: > 100 µM | TGI [11]: > 100 µM | TGI [12]: > 100 µM | TGI [13]: > 100 µM | TGI [14]: > 100 µM | TGI [15]: > 100 µM | TGI [16]: > 100 µM | TGI [17]: > 100 µM | TGI [18]: > 100 µM | TGI [19]: > 100 µM | TGI [20]: > 100 µM | TGI [21]: > 100 µM | TGI [22]: > 100 µM | TGI [23]: > 100 µM | TGI [24]: > 100 µM | TGI [25]: > 100 µM | TGI [26]: > 100 µM | TGI [27]: > 100 µM | TGI [28]: > 100 µM | TGI [29]: > 100 µM | TGI [30]: > 100 µM | TGI [31]: > 100 µM | TGI [32]: > 100 µM | TGI [33]: > 100 µM | TGI [34]: > 100 µM | TGI [35]: > 100 µM | TGI [36]: > 100 µM | TGI [37]: > 100 µM | TGI [38]: > 100 µM | TGI [39]: > 100 µM | TGI [40]: > 100 µM | TGI [41]: > 100 µM | TGI [42]: > 100 µM | TGI [43]: > 100 µM | TGI [44]: > 100 µM | TGI [45]: > 100 µM | TGI [46]: > 100 µM | TGI [47]: > 100 µM | TGI [48]: > 100 µM

COc1ccc(/C=C2\CC3C4CC=C5C[C@@H](O)CC[C@]5(C)C4CC[C@]3(C)\C2=N\O)cc1OC (stereo partly specified)
TGI [1]: > 100 µM | TGI [2]: > 100 µM | TGI [3]: > 100 µM | TGI [4]: 36.9 µM | TGI [5]: > 100 µM | TGI [6]: > 100 µM | TGI [7]: > 100 µM | TGI [8]: > 100 µM | TGI [49]: > 100 µM | TGI [9]: > 100 µM | TGI [10]: > 100 µM | TGI [11]: 25.6 µM | TGI [12]: > 100 µM | TGI [13]: > 100 µM | TGI [14]: > 100 µM | TGI [50]: > 100 µM | TGI [15]: > 100 µM | TGI [51]: > 100 µM | TGI [16]: > 100 µM | TGI [17]: > 100 µM | TGI [52]: > 100 µM | TGI [18]: 8.74 µM | TGI [19]: > 100 µM | TGI [20]: > 100 µM | TGI [21]: 67.1 µM | TGI [22]: > 100 µM | TGI [23]: > 100 µM | TGI [24]: 45.1 µM | TGI [25]: > 100 µM | TGI [26]: > 100 µM | TGI [27]: 42.3 µM | TGI [28]: 80.9 µM | TGI [53]: > 100 µM | TGI [29]: 86.2 µM | TGI [30]: > 100 µM | TGI [31]: > 100 µM | TGI [32]: > 100 µM | TGI [54]: > 100 µM | TGI [33]: > 100 µM | TGI [35]: > 100 µM | TGI [55]: > 100 µM | TGI [36]: > 100 µM | TGI [37]: > 100 µM | TGI [56]: > 100 µM | TGI [38]: > 100 µM | TGI [39]: > 100 µM | TGI [40]: > 100 µM | TGI [41]: > 100 µM | TGI [57]: > 100 µM | TGI [58]: > 100 µM | TGI [42]: > 100 µM | TGI [43]: > 100 µM | TGI [44]: > 100 µM | TGI [45]: 9.97 µM | TGI [46]: > 100 µM | TGI [47]: > 100 µM | TGI [59]: > 100 µM | TGI [48]: > 100 µM
